# Data taken from ChEMBL document CHEMBL3045038, “Structure-based predictive model for some benzimidazole inhibitors of hepatitis C virus NS5B polymerase” (Med Chem Res, 2013).
# Molecular target: RNA-directed RNA polymerase (Hepacivirus hominis, UniProt O39930)
# Assay: Inhibition of Hepatitis C virus genotype 1 NS5B polymerases lacking C-terminal 47 amino acid residues expressed in Escherichia coli after 60 min
row,SMILES,IC50 [nM]
1,O=C(O)c1ccc2c(c1)nc(-c1ccc(OCc3cc(N4CCCC4=O)ccc3-c3ccc(Cl)cc3)cc1F)n2C1CCCCC1,12
2,NC(=O)c1ccc(-c2ccc(Cl)cc2)c(COc2ccc(-c3nc4cc(C(=O)O)ccc4n3C3CCCCC3)c(F)c2)c1,13
3,Cc1ncc(COc2ccc(-c3nc4cc(C(=O)O)ccc4n3C3CCCCC3)c(F)c2)c(-c2ccc(Cl)cc2)n1,188
4,CC(=O)NC(=O)c1ccc(-c2ccc(Cl)cc2)c(COc2ccc(-c3nc4cc(C(=O)O)ccc4n3C3CCCCC3)c(F)c2)c1,14
